Data on four compounds can be found in ChEMBL document CHEMBL1150977, “A quantitative analysis of kinase inhibitor selectivity” (Nat Biotechnol, 2008).

Assay [1] addresses T1, Tyrosine-protein kinase JAK3 (Homo sapiens, UniProt P52333).
T1 sequence (P52333 whole entry): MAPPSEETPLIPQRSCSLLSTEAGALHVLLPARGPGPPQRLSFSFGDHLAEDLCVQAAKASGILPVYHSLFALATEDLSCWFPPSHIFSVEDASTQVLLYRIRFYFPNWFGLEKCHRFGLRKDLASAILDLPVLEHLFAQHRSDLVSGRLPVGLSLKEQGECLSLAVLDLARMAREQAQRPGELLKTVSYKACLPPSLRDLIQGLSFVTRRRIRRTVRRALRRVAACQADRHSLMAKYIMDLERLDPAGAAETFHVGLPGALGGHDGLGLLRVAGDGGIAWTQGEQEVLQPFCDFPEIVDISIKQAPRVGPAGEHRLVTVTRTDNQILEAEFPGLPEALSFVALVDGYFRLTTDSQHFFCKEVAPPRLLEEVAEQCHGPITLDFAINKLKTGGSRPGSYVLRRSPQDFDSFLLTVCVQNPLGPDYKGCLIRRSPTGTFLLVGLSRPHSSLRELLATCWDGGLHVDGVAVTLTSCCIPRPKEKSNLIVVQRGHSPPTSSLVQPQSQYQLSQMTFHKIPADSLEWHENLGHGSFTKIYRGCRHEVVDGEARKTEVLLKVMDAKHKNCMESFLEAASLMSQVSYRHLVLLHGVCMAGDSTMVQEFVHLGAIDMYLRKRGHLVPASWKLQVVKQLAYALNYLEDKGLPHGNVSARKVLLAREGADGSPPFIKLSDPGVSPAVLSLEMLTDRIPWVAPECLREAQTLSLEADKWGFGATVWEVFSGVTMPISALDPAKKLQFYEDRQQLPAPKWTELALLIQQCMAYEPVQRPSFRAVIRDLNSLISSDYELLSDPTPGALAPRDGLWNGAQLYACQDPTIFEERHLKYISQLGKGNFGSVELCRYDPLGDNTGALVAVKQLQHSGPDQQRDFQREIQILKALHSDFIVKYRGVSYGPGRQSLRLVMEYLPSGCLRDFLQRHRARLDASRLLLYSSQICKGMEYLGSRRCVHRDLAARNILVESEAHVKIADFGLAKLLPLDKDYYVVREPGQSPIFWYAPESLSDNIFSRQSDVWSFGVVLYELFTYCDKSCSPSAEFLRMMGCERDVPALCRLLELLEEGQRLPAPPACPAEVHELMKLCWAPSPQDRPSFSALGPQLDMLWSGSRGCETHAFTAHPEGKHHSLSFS

The target in assay [2] is T2, Bone morphogenetic protein receptor type-2 (Homo sapiens, UniProt Q13873).
T2 sequence (Q13873 whole entry): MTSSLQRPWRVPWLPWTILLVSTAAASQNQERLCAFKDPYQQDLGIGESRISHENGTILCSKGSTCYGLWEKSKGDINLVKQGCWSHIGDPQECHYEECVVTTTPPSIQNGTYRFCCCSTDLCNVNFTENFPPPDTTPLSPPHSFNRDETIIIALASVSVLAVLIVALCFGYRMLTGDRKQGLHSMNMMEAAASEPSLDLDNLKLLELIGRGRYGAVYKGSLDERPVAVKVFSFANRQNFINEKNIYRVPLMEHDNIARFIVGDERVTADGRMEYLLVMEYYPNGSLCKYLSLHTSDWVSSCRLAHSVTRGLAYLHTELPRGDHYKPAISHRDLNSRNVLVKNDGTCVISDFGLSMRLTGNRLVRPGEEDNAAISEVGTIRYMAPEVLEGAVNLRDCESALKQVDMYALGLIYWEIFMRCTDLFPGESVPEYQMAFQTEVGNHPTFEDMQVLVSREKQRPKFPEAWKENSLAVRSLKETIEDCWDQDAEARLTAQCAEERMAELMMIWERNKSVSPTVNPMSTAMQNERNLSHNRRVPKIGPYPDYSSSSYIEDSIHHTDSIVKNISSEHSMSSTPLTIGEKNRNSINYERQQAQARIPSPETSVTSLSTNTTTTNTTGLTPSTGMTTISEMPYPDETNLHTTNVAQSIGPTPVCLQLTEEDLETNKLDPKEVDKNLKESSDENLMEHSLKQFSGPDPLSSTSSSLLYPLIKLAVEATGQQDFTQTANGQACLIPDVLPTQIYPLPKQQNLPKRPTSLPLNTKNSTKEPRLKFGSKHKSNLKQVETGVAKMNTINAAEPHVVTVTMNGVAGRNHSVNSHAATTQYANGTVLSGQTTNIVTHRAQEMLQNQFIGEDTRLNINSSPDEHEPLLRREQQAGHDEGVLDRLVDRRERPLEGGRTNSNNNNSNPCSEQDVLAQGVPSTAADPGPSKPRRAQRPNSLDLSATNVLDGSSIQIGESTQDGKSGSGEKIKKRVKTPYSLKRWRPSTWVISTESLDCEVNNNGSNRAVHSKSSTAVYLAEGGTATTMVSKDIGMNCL

As a reminder, the Kd is the free concentration of one partner at which half of the binding sites on the other are occupied at equilibrium, for simple one-to-one binding. Lower therefore signals higher affinity. As for `COCC(=O)NC/C=C/c1ccc2ncnc(Nc3ccc(Oc4ccc(C)nc4)c(C)c3)c2c1` [CP-724714], the Kd in assay [1] and in assay [2] was above 10 µM each time.
As for `CCOc1cc2ncc(C#N)c(Nc3ccc(F)c(Cl)c3)c2cc1NC(=O)/C=C/CN(C)C` [PELITINIB], the dissociation constant (Kd) is 0.025 µM in assay [1] and above 10 µM in assay [2].
Take `Oc1ccc(-c2nc(-c3ccncc3)c(-c3ccc(F)cc3)[nH]2)cc1` [SB-202190]: the Kd in assay [1] and in assay [2] was above 10 µM each time.
Consider `NC(=O)c1ccc(-c2nc(-c3ccc4c(c3)OCO4)c(-c3ccccn3)[nH]2)cc1` [SB-431542], for which the dissociation constant Kd in assay [1] and in assay [2] was above 10 µM in each case.
